From US20130142831A1, “COMPOUNDS FOR INFLAMMATION AND IMMUNE-RELATED USES” (Synta Pharmaceuticals Corp., priority 2004, published 2013)

The compounds below were run on IL-2 production (assay: Inhibition of IL-2 production in PHA-activated Jurkat cells). Details: Homo sapiens, PHA 2.5 μg/mL, 20 hours, bins given in nM.
Type: cell-based
Description: Jurkat cells were placed in a 96 well plate (0.5 million cells per well in 1% FBS medium) then test compounds of this invention were added at different concentrations. After 10 minutes, the cells were activated with PHA (final concentration 2.5 μg/mL) and incubated for 20 hours at 37° C. under CO2. The final volume was 200 μL. Following incubation, the cells were centrifuged and the supernatants collected and stored at −70° C. prior to assaying for IL-2 production. A commercial kit (IL-2 Eli-pair, Diaclone Research, Besancon, France) was used to detect production of IL-2, from which dose response curves were obtained. The IC50 value was calculated as the concentration at which. 50% of maximum IL-2 production after stimulation was inhibited versus a non-stimulation control.

Row | IC50 | Compound
1 | 100 to 500 nM | O=C(Nc1ccc(-n2c(C(F)(F)F)nc3cc(C(F)(F)F)ccc32)cc1)c1cccc(F)c1F [Compound 64, 2,3-Difluoro-N-{4-[2,5-di-(trifluoromethyl)-benzoimidazol-1-yl]-phenyl}-benzamide]
2 | 100 to 500 nM | CS(=O)(=O)c1ccc2c(c1)nc(C(F)(F)F)n2-c1ccc(NC(=O)c2cccc(F)c2F)cc1 [Compound 65, 2,3-Difluoro-N-[4-(2-trifluoromethyl-5-methanesulfonyl-benzoimidazol-1-yl)-phenyl]-benzamide]

Second part, the compound before the results:

Row | Compound | IC50
3 | COc1ccc2c(c1)nc(C(F)(F)F)n2-c1ccc(NC(=O)c2c(Cl)cc(Cl)cc2Cl)cc1 [Compound 63, 2,4,6-Trichloro-N-[4-(2-trifluoromethyl-5-methoxy-benzoimidazol-1-yl)-phenyl]-benzamide] | 100 to 500 nM
4 | CCCCc1ccc(C(=O)Nc2ccc(-n3c(C(F)(F)F)nc4cc(OC)ccc43)cc2)cc1 [Compound 66, 4-Butyl-N-[4-(2-trifluoromethyl-5-methoxy-benzoimidazol-1-yl)-phenyl]-benzamide] | 100 to 500 nM

Same assay, conditions: Homo sapiens, PHA 2.5 μg/mL, 20 hours, bins given with μM limit

Row | IC50 | Compound
5 | > 1000 nM | O=S(=O)(Nc1ccc(-n2c(C(F)(F)F)nc3ccccc32)cc1)c1cccc(F)c1F [Compound 52, 2,3-Difluoro-N-[4-(trifluoromethyl-benzoimidazol-1-yl)-phenyl]-benzenesulfonamide]
6 | > 1000 nM | CC(=O)Nc1cc(NC(=O)c2cccc(F)c2F)ccc1-n1c(C(F)(F)F)nc2ccccc21 [Compound 53, 2,3-Difluoro-N-[3-acetylamino-4-(2-trifluoromethyl-benzoimidazol-1-yl)-phenyl]-benzamide]
7 | > 1000 nM | Cc1cc(-n2c(C(F)(F)F)nc3ccccc32)ccc1NC(=O)c1cccc(F)c1F [Compound 55, 2,3-Difluoro-N-[2-methyl-4-(2-trifluoromethyl-benzoimidazol-1-yl)-phenyl]-benzamide]
8 | > 1000 nM | O=C(Nc1ccc(-n2c(C(F)(F)F)nc3cc(O)c(O)cc32)cc1)c1cccc(F)c1F [Compound 60, 2,3-Difluoro-N-[4-(2-trifluoromethyl-5,6-dihydroxy-benzoimidazol-1-yl)-phenyl]-benzamide]
9 | > 1000 nM | O=C(Nc1ccc(-n2c(C(F)(F)F)nc3cnccc32)cc1)c1cccc(F)c1F [Compound 61, 2,3-Difluoro-N-[4-(2-trifluoromethyl-imidazo[4,5-c]pyrid-1-yl)-phenyl]-benzamide]

The remaining lines, values behind:

Row | Compound | IC50
10 | O=C(Nc1ccc(-n2cnc3ccccc32)cc1)c1cccc(F)c1F [Compound 54, 2,3-Difluoro-N-[4-(benzoimidazol-1-yl)-phenyl]-benzamide] | > 1000 nM
11 | O=C(Nc1ccc(-n2c(C(F)(F)F)nc3cc(N4C(=O)c5ccccc5C4=O)ccc32)cc1)c1cccc(F)c1F [Compound 57, 2,3-Difluoro-N-{4-[2-trifluoromethyl-5-(1,3-dioxo-isoindol-2-yl)-benzoimidazol-1-yl]-phenyl}-benzamide] | > 1000 nM
12 | Cc1nnsc1C(=O)Nc1ccc(-n2c(C(F)(F)F)nc3cccnc32)cc1 [Compound 58, 4-Methyl-[1,2,3]thiadiazole-5-carboxylic acid {N-[4-(2-trifluoromethyl-imidazo[4,5-b]pyrid-3-yl)-phenyl]} amide] | > 1000 nM
13 | Cc1nnsc1C(=O)Nc1ccc(-n2c(C(F)(F)F)nc3ccccc32)nc1 [Compound 62, 4-Methyl-[1,2,3]thiadiazole-5-carboxylic acid {N-[2-(2-trifluoromethyl-benzoimidazol-1-yl)-pyrid-5-yl]} amide] | > 1000 nM
14 | CC(C)(C)c1cnc(-c2ccc3c(c2)nc(C(F)(F)F)n3-c2ccc(NC(=O)c3cc(F)ccc3F)cc2)o1 [Compound 67, 2,5-Difluoro-N-{4-[2-trifluoromethyl-5-(5-tert-butyl-oxazol-2-yl)-benzoimidazol-1-yl]-phenyl}-benzamide] | > 1000 nM
15 | CC(C)(C)c1cnc(-c2ccc3c(c2)nc(C(F)(F)F)n3-c2ccc(NC(=O)c3cccc(F)c3F)cc2)o1 [Compound 68, 2,3-Difluoro-N-{4-[2-trifluoromethyl-5-(5-tert-butyl-oxazol-2-yl)-benzoimidazol-1-yl]-phenyl}-benzamide] | > 1000 nM
